# What was measured:
# [1] = bacteroides thetaiotaomicron, 12 h, 2 µM
# Description: The drug is tested on Bacteroides thetaiotaomicron strain: 7330 for biotransformation. The drug concentrations were measured before and after a 12-h incubation by liquid-chromatography-coupled mass spectrometry (LC–MS)
# [2] = bacteroides fragilis, 12 h, 2 µM
# Description: The drug is tested on Bacteroides fragilis strain: 3397 (T10) for biotransformation. The drug concentrations were measured before and after a 12-h incubation by liquid-chromatography-coupled mass spectrometry (LC–MS)
# [3] = segatella copri, 12 h, 2 µM
# Description: The drug is tested on Prevotella copri strain: DSM18205 for biotransformation. The drug concentrations were measured before and after a 12-h incubation by liquid-chromatography-coupled mass spectrometry (LC–MS)
# [4] = bacteroides eggerthii, 12 h, 2 µM
# Description: The drug is tested on Bacteroides eggerthii strain: DSM20697 for biotransformation. The drug concentrations were measured before and after a 12-h incubation by liquid-chromatography-coupled mass spectrometry (LC–MS)
# [5] = The drug is tested on Ruminococcus lactaris strain: ATCC29176 for biotransformation. The drug concentrations were measured before and after a 12-h incubation by liquid-chromatography-coupled mass spectrometry (LC–MS); conditions: 2 µM
# [6] = bacteroides fragilis, 12 h, 2 µM; remark: listed apart in the source
# Description: The drug is tested on Bacteroides fragilis strain: DS-208 for biotransformation. The drug concentrations were measured before and after a 12-h incubation by liquid-chromatography-coupled mass spectrometry (LC–MS)
# [7] = roseburia intestinalis, 12 h, 2 µM
# Description: The drug is tested on Roseburia intestinalis strain: L1-82 for biotransformation. The drug concentrations were measured before and after a 12-h incubation by liquid-chromatography-coupled mass spectrometry (LC–MS)
# [8] = The drug is tested on Clostridium symbiosum strain: ATCC14940 for biotransformation. The drug concentrations were measured before and after a 12-h incubation by liquid-chromatography-coupled mass spectrometry (LC–MS); conditions: 2 µM
# [9] = The drug is tested on Bacteroides vulgatus strain: ATCC8482 for biotransformation. The drug concentrations were measured before and after a 12-h incubation by liquid-chromatography-coupled mass spectrometry (LC–MS); conditions: phocaeicola vulgatus, 2 µM
# [10] = bacteroides intestinalis, 12 h, 2 µM
# Description: The drug is tested on Bacteroides intestinalis strain: DSM17393 for biotransformation. The drug concentrations were measured before and after a 12-h incubation by liquid-chromatography-coupled mass spectrometry (LC–MS)
# [11] = anaerostipes sp., 12 h, 2 µM
# Description: The drug is tested on Anaerostipes sp. strain: fecal isolate for biotransformation. The drug concentrations were measured before and after a 12-h incubation by liquid-chromatography-coupled mass spectrometry (LC–MS)
# [12] = The drug is tested on Bacteroides uniformis strain: ATCC8492 for biotransformation. The drug concentrations were measured before and after a 12-h incubation by liquid-chromatography-coupled mass spectrometry (LC–MS); conditions: 2 µM
# [13] = The drug is tested on Bacteroides pectinophilus strain: ATCC43243 for biotransformation. The drug concentrations were measured before and after a 12-h incubation by liquid-chromatography-coupled mass spectrometry (LC–MS); conditions: 2 µM
# [14] = The drug is tested on Clostridium asparagiforme strain: DSM15981 for biotransformation. The drug concentrations were measured before and after a 12-h incubation by liquid-chromatography-coupled mass spectrometry (LC–MS); format: ADME; design: dose 2 uM, timepoint 0 vs 12 hours; conditions: enterocloster asparagiformis, 2 µM
# [15] = akkermansia muciniphila, 12 h, 2 µM
# Description: The drug is tested on Akkermansia muciniphila strain: ATCC BAA-835 for biotransformation. The drug concentrations were measured before and after a 12-h incubation by liquid-chromatography-coupled mass spectrometry (LC–MS)
# [16] = The drug is tested on Bacteroides dorei strain: DSM17855 for biotransformation. The drug concentrations were measured before and after a 12-h incubation by liquid-chromatography-coupled mass spectrometry (LC–MS); conditions: phocaeicola dorei, 2 µM
# [17] = The drug is tested on Bifidobacterium ruminantium strain: fecal isolate for biotransformation. The drug concentrations were measured before and after a 12-h incubation by liquid-chromatography-coupled mass spectrometry (LC–MS); conditions: 2 µM
# [18] = The drug is tested on Alistipes indistinctus strain: DSM22520 for biotransformation. The drug concentrations were measured before and after a 12-h incubation by liquid-chromatography-coupled mass spectrometry (LC–MS); conditions: 2 µM
# [19] = bacteroides thetaiotaomicron, 12 h, 2 µM; remark: listed apart in the source
# Description: The drug is tested on Bacteroides thetaiotaomicron strain: VPI-5482 for biotransformation. The drug concentrations were measured before and after a 12-h incubation by liquid-chromatography-coupled mass spectrometry (LC–MS)
SMILES,Bacterial Biotransformation [1],Bacterial Biotransformation [2],Bacterial Biotransformation [3],Bacterial Biotransformation [4],Bacterial Biotransformation [5],Bacterial Biotransformation [6],Bacterial Biotransformation [7],Bacterial Biotransformation [8],Bacterial Biotransformation [9],Bacterial Biotransformation [10],Bacterial Biotransformation [11],Bacterial Biotransformation [12],Bacterial Biotransformation [13],Bacterial Biotransformation [14],Bacterial Biotransformation [15],Bacterial Biotransformation [16],Bacterial Biotransformation [17],Bacterial Biotransformation [18],Bacterial Biotransformation [19]
CN(C)CCc1c[nH]c2ccc(CS(=O)(=O)N3CCCC3)cc12 [ALMOTRIPTAN],Compound NOT metabolized,Compound NOT metabolized,Compound NOT metabolized,Compound NOT metabolized,Compound NOT metabolized,Compound NOT metabolized,Compound NOT metabolized,Compound NOT metabolized,Compound NOT metabolized,Compound NOT metabolized,Compound NOT metabolized,Compound NOT metabolized,Compound NOT metabolized,Compound NOT metabolized,–,–,–,–,–
CCC1(c2ccc(N)cc2)CCC(=O)NC1=O (stereo not drawn) [AMINOGLUTETHIMIDE],Compound NOT metabolized,–,Compound NOT metabolized,Compound NOT metabolized,Compound NOT metabolized,Compound NOT metabolized,Compound NOT metabolized,Compound NOT metabolized,Compound NOT metabolized,Compound NOT metabolized,Compound NOT metabolized,–,Compound NOT metabolized,Compound NOT metabolized,Compound NOT metabolized,Compound NOT metabolized,–,–,–
CC(C)(C#N)c1cc(Cn2cncn2)cc(C(C)(C)C#N)c1 [ANASTROZOLE],Compound metabolized,Compound metabolized,Compound metabolized,Compound metabolized,Compound NOT metabolized,Compound NOT metabolized,Compound NOT metabolized,Compound NOT metabolized,Compound metabolized,Compound NOT metabolized,Compound NOT metabolized,Compound metabolized,Compound NOT metabolized,–,Compound metabolized,–,Compound metabolized,Compound NOT metabolized,Compound metabolized
CC(C)NCC(O)COc1ccc(CC(N)=O)cc1 (stereo not drawn) [ATENOLOL],–,–,Compound NOT metabolized,Compound NOT metabolized,–,–,Compound NOT metabolized,Compound NOT metabolized,Compound NOT metabolized,Compound NOT metabolized,Compound NOT metabolized,–,Compound NOT metabolized,Compound NOT metabolized,Compound NOT metabolized,–,Compound NOT metabolized,–,–
CN(C)CCOC(c1ccc(Cl)cc1)c1ccccn1.O=C(O)/C=C\C(=O)O (stereo not drawn) [CARBINOXAMINE MALEATE],Compound NOT metabolized,Compound NOT metabolized,Compound NOT metabolized,Compound NOT metabolized,Compound NOT metabolized,Compound NOT metabolized,Compound NOT metabolized,Compound NOT metabolized,Compound NOT metabolized,Compound NOT metabolized,Compound NOT metabolized,Compound NOT metabolized,Compound NOT metabolized,Compound NOT metabolized,Compound NOT metabolized,Compound NOT metabolized,–,–,Compound NOT metabolized
CCCC(C)(COC(N)=O)COC(=O)NC(C)C (stereo not drawn) [CARISOPRODOL],Compound metabolized,Compound metabolized,Compound metabolized,–,–,Compound metabolized,Compound metabolized,Compound NOT metabolized,Compound metabolized,Compound NOT metabolized,Compound NOT metabolized,Compound metabolized,Compound metabolized,–,Compound NOT metabolized,Compound metabolized,Compound NOT metabolized,Compound NOT metabolized,Compound metabolized
O=C(O)COCCN1CCN(C(c2ccccc2)c2ccc(Cl)cc2)CC1 (stereo not drawn) [CETIRIZINE],Compound metabolized,Compound metabolized,Compound metabolized,Compound metabolized,Compound NOT metabolized,Compound metabolized,Compound NOT metabolized,Compound NOT metabolized,Compound metabolized,Compound metabolized,Compound NOT metabolized,Compound metabolized,Compound metabolized,–,Compound NOT metabolized,Compound metabolized,Compound NOT metabolized,Compound metabolized,Compound metabolized
c1ccc([C@H]2CN3CCSC3=N2)cc1 [LEVAMISOLE],Compound metabolized,Compound metabolized,Compound NOT metabolized,Compound metabolized,Compound NOT metabolized,Compound metabolized,Compound NOT metabolized,Compound metabolized,Compound metabolized,Compound metabolized,Compound NOT metabolized,Compound metabolized,–,Compound metabolized,–,Compound metabolized,Compound NOT metabolized,–,Compound metabolized
